According to patent US20140005165A1, “SUBSTITUTED 3-AZABICYCLO[3.1.0]HEXANE DERIVATIVES USEFUL AS CCR2 ANTAGONISTS” (priority 2011, published 2014):

Target: T1, human CCR2 (Homo sapiens, UniProt P41597)
T1 construct: expressed in transfected cells; host or cells: Ba/F3 cells (membrane preparation)
Test: CCR2 Membrane Binding Assay (SPA radio-ligand binding, 125I-rhMCP-1)
Conditions: membranes from Ba/F3 cells transfected with human CCR2; 0.03 nM 125I-rhMCP-1; 4 h room temperature
Procedure: The radio-ligand binding assay was done using scintillation proximity assay (SPA) technology. Briefly, membranes (1 μg per assay point) from Ba/F3 cells transfected with human CCR2, and wheat germ agglutinin-coated SPA beads (80 μg per point; Amersham, Arlington Heights, Ill.), were pre-incubated for 30 min at room temperature in CCR2 buffer (50 mM HEPES (pH=7.4), 10 mM MgCl2, 10 mM NaCl, 1 mM CaCL2, 0.1% BSA, 10 μg/ml Saponin). At this point pre-bound SPA bead, membrane complex was incubated at room temperature for 4 h with varying concentrations of punitive CCR2 antagonists (in 1% DMSO, final) and 0.03 nM ^125I-rhMCP-1 in CCR2Buffer (S.A. 2200 Ci/mmol, PerkinElmer Life and Analytical Science, Boston, Mass.; NEX332). Binding competition was measured using a 1450 Microbeta Trilux counter (Wallac, Gaithersburg, Md.). Binding constants (IC50 and slope) were calculated using GraphPad Prism software (GraphPad Software, Inc., La Jolla Calif.).

T1 sequence (P41597 whole entry): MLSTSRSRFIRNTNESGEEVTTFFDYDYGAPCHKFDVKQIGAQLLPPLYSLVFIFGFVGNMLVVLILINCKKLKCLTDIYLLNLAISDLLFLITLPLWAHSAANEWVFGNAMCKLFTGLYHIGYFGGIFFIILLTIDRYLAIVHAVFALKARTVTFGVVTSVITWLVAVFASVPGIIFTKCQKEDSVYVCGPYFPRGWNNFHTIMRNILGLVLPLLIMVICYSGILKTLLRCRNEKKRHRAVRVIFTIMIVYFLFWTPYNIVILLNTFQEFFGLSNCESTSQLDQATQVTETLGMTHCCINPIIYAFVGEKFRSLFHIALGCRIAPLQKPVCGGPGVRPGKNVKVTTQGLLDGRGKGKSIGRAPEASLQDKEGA

First: O=C(CNC(=O)[C@H]1[C@@H]2CN([C@H]3CC[C@@H](c4ccc(-c5ccccc5)cc4)CC3)C[C@@H]21)Nc1cccc(C(F)(F)F)c1 [Compound 156]
Second: O=C(CNC(=O)[C@H]1[C@@H]2CN([C@H]3CC[C@@H](c4ccccn4)CC3)C[C@@H]21)Nc1cccc(C(F)(F)F)c1 [Compound 81]
The IC50 of the first is 4.1-fold higher: 7.4 nM for the first, 1.8 nM for the second. The second is the more potent here.

Compared with `O=C(CNC(=O)[C@H]1[C@@H]2CN(C3CCC(O)(c4nccs4)CC3)C[C@@H]21)Nc1cccc(C(F)(F)F)c1` (stereo partly shown) [Compound 120], `Cn1cc([C@H]2CC[C@@H](N3C[C@@H]4[C@H](C3)[C@H]4C(=O)NCC(=O)Nc3cccc(C(F)(F)F)c3)CC2)cn1` [Compound 94] is 3.5-fold higher in IC50: 3.9 nM for the first, 13.6 nM for the second.

In the case of `Cn1ncc2cc([C@H]3CC[C@@H](N4C[C@@H]5[C@H](C4)[C@H]5C(=O)NCC(=O)Nc4cccc(C(F)(F)F)c4)CC3)ccc21` [Compound 150], the IC50 is reported as 6.7 nM.

Same assay, conditions: membranes from Ba/F3 cells transfected with human CCR2; 0.03 nM 125I-rhMCP-1; class symbols

`CCC(C)N1C[C@@H]2[C@H](C1)[C@H]2C(=O)NCC(=O)Nc1cccc(C(F)(F)F)c1` (stereo partly shown) [Compound 9] and `CCC(CC)N1C[C@@H]2[C@H](C1)[C@H]2C(=O)NCC(=O)Nc1cccc(C(F)(F)F)c1` [Compound 13] fall in the same range of IC50: 51 to 200 nM for the first, 51 to 200 nM for the second.

First: COC(=O)[C@H]1CC[C@@H](N2C[C@@H]3[C@H](C2)[C@H]3C(=O)NCC(=O)Nc2cccc(C(F)(F)F)c2)CC1 [Compound 57]
Second: CC(=O)NC1CCC(N2C[C@@H]3[C@H](C2)[C@H]3C(=O)NCC(=O)Nc2cccc(C(F)(F)F)c2)CC1 (stereo partly shown) [Compound 55]
The IC50 of the first is lower: under 50 nM for the first, 201 to 700 nM for the second.

`O=C(CNC(=O)[C@H]1[C@@H]2CN([C@H]3CC[C@H](c4ccc(O)cc4)CC3)C[C@@H]21)Nc1cccc(C(F)(F)F)c1` [Compound 115] and `N#Cc1ccc([C@H]2CC[C@@H](N3C[C@@H]4[C@H](C3)[C@H]4C(=O)NCC(=O)Nc3cccc(C(F)(F)F)c3)CC2)cc1` [Compound 126] cannot be ordered by IC50: under 50 nM for the first, under 50 nM for the second.

`O=C(CNC(=O)[C@H]1[C@@H]2CN(C3CCCCC3)C[C@@H]21)Nc1cccc(C(F)(F)F)c1` [Compound 2] and `CC1CCCCC1N1C[C@@H]2[C@H](C1)[C@H]2C(=O)NCC(=O)Nc1cccc(C(F)(F)F)c1` (stereo partly shown) [Compound 31] fall in the same range of IC50: 51 to 200 nM for the first, 51 to 200 nM for the second.

`O=C(CNC(=O)[C@H]1[C@@H]2CN([C@H]3CC[C@@H](c4ccc(OCc5ccccc5)cc4)CC3)C[C@@H]21)Nc1cccc(C(F)(F)F)c1` [Compound 160] and `O=C(CNC(=O)[C@H]1[C@@H]2CN([C@H]3CC[C@@H](c4cnn(Cc5ccccc5)c4)CC3)C[C@@H]21)Nc1cccc(C(F)(F)F)c1` [Compound 157] cannot be ordered by IC50: under 50 nM for the first, under 50 nM for the second.

First: CC1CCC(N2C[C@@H]3[C@H](C2)[C@H]3C(=O)NCC(=O)Nc2cccc(C(F)(F)F)c2)CC1 (stereo partly shown) [Compound 30]
Second: CC1CCCC(N2C[C@@H]3[C@H](C2)[C@H]3C(=O)NCC(=O)Nc2cccc(C(F)(F)F)c2)C1 (stereo partly shown) [Compound 32]
The IC50 of the first is lower: 51 to 200 nM for the first, 201 to 700 nM for the second. The first is the more potent here.

First: CC(C)(C)OC(=O)N[C@H]1CC[C@@H](N2C[C@@H]3[C@H](C2)[C@H]3C(=O)NCC(=O)Nc2cccc(C(F)(F)F)c2)CC1 [Compound 136]
Second: O=C(CNC(=O)[C@H]1[C@@H]2CN([C@H]3CC[C@H](Nc4ccc(F)c(F)c4)CC3)C[C@@H]21)Nc1cccc(C(F)(F)F)c1 [Compound 149]
The IC50 of the first is lower: 51 to 200 nM for the first, 201 to 700 nM for the second. The first is the more potent here.

Compared with `O=C(CNC(=O)[C@H]1[C@@H]2CN([C@H]3CC[C@H](c4ccncc4)CC3)C[C@@H]21)Nc1cccc(C(F)(F)F)c1` [Compound 85], `O=C(CNC(=O)[C@H]1[C@@H]2CN([C@H]3CC[C@@H](c4cncnc4)CC3)C[C@@H]21)Nc1cccc(C(F)(F)F)c1` [Compound 91] is lower in IC50: 201 to 700 nM for the first, under 50 nM for the second. The second is the more potent here.

`O=C(CNC(=O)[C@H]1[C@@H]2CN(C3CC(CO)C3)C[C@@H]21)Nc1cccc(C(F)(F)F)c1` (stereo partly shown) [Compound 23] and `O=C1CC2CC(N3C[C@@H]4[C@H](C3)[C@H]4C(=O)NCC(=O)Nc3cccc(C(F)(F)F)c3)CC2C1` (stereo partly shown) [Compound 44] fall in the same range of IC50: 201 to 700 nM for the first, 201 to 700 nM for the second.

First: O=C(NCCc1cccc(C(F)(F)F)c1)[C@H]1[C@@H]2CN([C@H]3CC[C@@H](c4ccccc4)CC3)C[C@@H]21 [Compound 48]
Second: O=C(NCCCc1cccc(C(F)(F)F)c1)[C@H]1[C@@H]2CN([C@H]3CC[C@@H](c4ccccc4)CC3)C[C@@H]21 [Compound 62]
The IC50 of the first is lower: under 50 nM for the first, 51 to 200 nM for the second.

First: O=C([C@H]1[C@@H]2CN([C@H]3CC[C@@H](c4ccccc4)CC3)C[C@@H]21)N1CCC(c2cccc(C(F)(F)F)c2)C1 (stereo partly shown) [Compound 70]
Second: O=C([C@H]1[C@@H]2CN([C@H]3CC[C@@H](c4ccccc4)CC3)C[C@@H]21)N1CC[C@@H](Nc2nccc(C(F)(F)F)n2)C1 [Compound 6]
The IC50 of the first is lower: under 50 nM for the first, 51 to 200 nM for the second.

`O=C(NCCc1cccc(C(F)(F)F)c1)C1[C@H]2CN(C3CCCOC3)C[C@@H]12` (stereo partly shown) [Compound 162] and `CC(C)N1C[C@@H]2C(C(=O)NCCc3cccc(C(F)(F)F)c3)[C@@H]2C1` (stereo partly shown) [Compound 18] fall in the same range of IC50: 201 to 700 nM for the first, 201 to 700 nM for the second.

`FC(F)(F)c1cccc(CN(Cc2cccc(C(F)(F)F)c2)c2nnc([C@H]3[C@@H]4CN([C@H]5CC[C@@H](c6ccccc6)CC5)C[C@@H]43)o2)c1` [Compound 8] and `O=C(CNC(=O)[C@H]1[C@@H]2CN([C@H]3CC[C@@H](C4Cc5ccccc5O4)CC3)C[C@@H]21)Nc1cccc(C(F)(F)F)c1` (stereo partly shown) [Compound 140] fall in the same range of IC50: 201 to 700 nM for the first, 201 to 700 nM for the second.

First: O=C(CNC(=O)[C@H]1[C@@H]2CN([C@H]3CC[C@@H](c4cnc(O)nc4O)CC3)C[C@@H]21)Nc1cccc(C(F)(F)F)c1 [Compound 134]
Second: COc1ncc([C@H]2CC[C@@H](N3C[C@@H]4[C@H](C3)[C@H]4C(=O)NCC(=O)Nc3cccc(C(F)(F)F)c3)CC2)cn1 [Compound 133]
The IC50 of the first is higher: 51 to 200 nM for the first, under 50 nM for the second. The second is the more potent here.

In the case of `O=C(CNC(=O)[C@H]1[C@@H]2CN(C3CCSCC3)C[C@@H]21)Nc1cccc(C(F)(F)F)c1` [Compound 35], the “IC50 (nM)” value is reported as “D (compounds with IC50 values between 701 nM and 110 nM are designated as D class compounds)”.
For `CCCC(C)N1C[C@@H]2[C@H](C1)[C@H]2C(=O)NCC(=O)Nc1cccc(C(F)(F)F)c1` (stereo partly shown) [Compound 14], the “IC50 (nM)” value was “D (compounds with IC50 values between 701 nM and 110 nM are designated as D class compounds)”.
In the case of `O=C([C@H]1[C@@H]2CN([C@H]3CC[C@@H](c4ccccc4)CC3)C[C@@H]21)N1CC(Oc2ccccc2)C1` [Compound 25], the “IC50 (nM)” value is reported as “D (compounds with IC50 values between 701 nM and 110 nM are designated as D class compounds)”.
In the case of `O=C([C@H]1[C@@H]2CN([C@H]3CC[C@@H](c4ccccc4)CC3)C[C@@H]21)N1CCN(c2cccc(C(F)(F)F)c2)C(=O)C1` [Compound 127], the “IC50 (nM)” value is reported as “D (compounds with IC50 values between 701 nM and 110 nM are designated as D class compounds)”.
For `O=C(CNC(=O)[C@H]1[C@@H]2CN([C@H]3CC[C@H](c4ccccc4)CC3)C[C@@H]21)Nc1cccc(C(F)(F)F)c1` [Compound 79], the “IC50 (nM)” value was “D (compounds with IC50 values between 701 nM and 110 nM are designated as D class compounds)”.
In the case of `CC(N1C[C@@H]2[C@H](C1)[C@H]2C(=O)NCC(=O)Nc1cccc(C(F)(F)F)c1)C1(C)CC1` (stereo partly shown) [Compound 20], the “IC50 (nM)” value is reported as “D (compounds with IC50 values between 701 nM and 110 nM are designated as D class compounds)”.
`CC(C)(C)C1CCC(N2C[C@@H]3[C@H](C2)[C@H]3C(=O)NCC(=O)Nc2cccc(C(F)(F)F)c2)CC1` (stereo partly shown) [Compound 54] was tested, and the “IC50 (nM)” value was “D (compounds with IC50 values between 701 nM and 110 nM are designated as D class compounds)”.
